Data reported in BindingDB's records for doi:10.1021/acschembio.7b00489 (Michigan State University, 2017).
Where “and” joins values, the source holds several entries; their conditions need not be identical. Equal values may be shown once. Where a name gives a salt, the structure may show the parent alone.

What was measured:
[1] = target: Proteasome subunit alpha type-6 (Homo sapiens, UniProt P60900); test: Proteasome Activity Assay; conditions: pH 7.5; 37 °C
Experimental: Activity assays were carried out in a 200 uL reaction volume. Different concentrations of test compounds were added to a black flat/clear bottom 96-well plate containing 1 nM of either human constitutive 20S proteasome or 26S proteasome, in 50 mM Tris-HCl at pH 7.5 and allowed to sit for 10 min at RT. Fluorogenic substrates were then added and the enzymatic activity measured at 37 °C on a SpectraMax M5e spectrometer by measuring the change in fluorescence unit per minute for 1 h at 380−460 nm. The fluorescence units for the vehicle control were set at a 100%, and the ratio of drug-treated sample set to that of vehicle control was used to calculate the fold change in enzymatic activity.

[2] = target: Dopamine D2 receptor (Homo sapiens); test: Human embryonic kidney (HEK-293) cells were plated in 100 mm plates and transfected with pcDNA3.1-D2R using Lipofectamine 2000 (Invitrogen; Waltham, MA) according to the manufacturer's instructions. Radioligand binding assays were performed 24 h after transfection essentially as described.

Proteasome subunit alpha type-6, sequence (P60900 whole entry): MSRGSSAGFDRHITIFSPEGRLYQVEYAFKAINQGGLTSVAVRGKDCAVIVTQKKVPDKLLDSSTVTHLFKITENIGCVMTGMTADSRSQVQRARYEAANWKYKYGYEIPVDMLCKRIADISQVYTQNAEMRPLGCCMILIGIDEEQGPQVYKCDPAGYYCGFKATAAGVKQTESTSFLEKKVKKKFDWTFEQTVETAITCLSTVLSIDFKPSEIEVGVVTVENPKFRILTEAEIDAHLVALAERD

## CSc1ccc2c(c1)N(CC[C@@H]1CCCCN1C)c1ccccc1S2 [10-[2-(1-Methyl-piperidin-2-yl)-ethyl]-2-methylsulfanyl-10H-phenothiazine (thioridazine)]
[1]
  EC50: 12 µM

## CN(C)CCCN1c2ccccc2CCc2ccc(Cl)cc21 [CLOMIPRAMINE HYDROCHLORIDE]
[1]
  EC50: 12.4 µM

## CC(C)CCCN1c2ccccc2Sc2ccc(Cl)cc21 [CPZ analog, 1]
[1]
  EC50: > 25 µM
[2]
  Ki: > 250 µM

## O=S(=O)(O)CCCCN1c2ccccc2Sc2ccc(Cl)cc21 [CPZ analog, 2]
[1]
  EC50: 6.3 µM
[2]
  Ki: > 250 µM

## O=S(=O)(O)CCCN1c2ccccc2Sc2ccc(Cl)cc21 [CPZ analog, 3]
[1]
  EC50: > 25 µM

## O=S(=O)(O)CCCCCN1c2ccccc2Sc2ccc(Cl)cc21 [CPZ analog, 4]
[1]
  EC50: > 25 µM

## Clc1ccc2c(c1)N(CCCCN1CCOCC1)c1ccccc1S2 [CPZ analog, 5]
[1]
  EC50: 8.9 µM
[2]
  Ki: > 2.97 µM

## O=C(O)C#CCN1c2ccccc2Sc2ccc(Cl)cc21 [CPZ analog, 6]
[1]
  EC50: > 25 µM
[2]
  Ki: > 250 µM

## O=C(O)c1ccc(CN2c3ccccc3Sc3ccc(Cl)cc32)cc1 [CPZ analog, 7]
[1]
  EC50: 6.4 µM
[2]
  Ki: > 250 µM

## COC(=O)c1ccc(CN2c3ccccc3Sc3ccc(Cl)cc32)cc1 [CPZ analog, 8]
[1]
  EC50: 15.6 µM
[2]
  Ki: > 250 µM

## CN1CCCC(CC2c3ccccc3Sc3ccccc32)C1 (centres undefined) [METHIXENE]
[1]
  EC50: 11.9 µM

## CN(C)CCCN1c2ccccc2Sc2ccc(C(F)(F)F)cc21 [TRIFLUPROMAZINE]
[1]
  EC50: 7.8 µM

## CN(C)CCCN1c2ccccc2Sc2ccc(Cl)cc21 [[3-(2-Chloro-phenothiazin-10-yl)-propyl]-dimethyl-amine(Chlorpromazine)]
[1]
  EC50: 14.8 µM and 9.9 µM
